These are literature values, as cited in EP3819377A1, “CIRCULAR RNA AND USES THEREOF FOR […]-BINDING PROTEINS” (Justus-Liebig-Universität Gießen, priority 2019, dated 2021).

For this data set the following is noted: cationic lipid with a tertiary amine group; WO 2012/031046 A2.

Broadly, the pKa is the negative logarithm of the acid dissociation constant. For the compound `CCCCC/C=C\C/C=C\CCCCCCCCOCC(CN(C)C)OCCCCCCCC/C=C\C/C=C\CCCCC` (stereo not shown) [DLinDMA, 1,2-dilinoleyloxy-N,N-dimethyl-3-aminopropane], the pKa is on record as 5.8.
